Test results published in article PMC2662044 (European journal of medicinal chemistry, 2008).
Entries after “also recorded” stand apart in the source; their conditions may differ. Where two headings read alike, the source gives them in different places.

What was measured:
[1] = molecular target: T1, Kv1.5 (Homo sapiens, UniProt P22460); conditions: Table 1, cited from earlier work; for IC50: read-out: IC50 value Kv1.5
[2] = molecular target: T2, Kv1.3 (Mus musculus, UniProt P16390); format: cell-based; conditions: for IC50: IC50 Kv1.3, text; for Effect on Kv1.3: concentration of 10 µM where stated
T2 sequence (P16390 whole entry): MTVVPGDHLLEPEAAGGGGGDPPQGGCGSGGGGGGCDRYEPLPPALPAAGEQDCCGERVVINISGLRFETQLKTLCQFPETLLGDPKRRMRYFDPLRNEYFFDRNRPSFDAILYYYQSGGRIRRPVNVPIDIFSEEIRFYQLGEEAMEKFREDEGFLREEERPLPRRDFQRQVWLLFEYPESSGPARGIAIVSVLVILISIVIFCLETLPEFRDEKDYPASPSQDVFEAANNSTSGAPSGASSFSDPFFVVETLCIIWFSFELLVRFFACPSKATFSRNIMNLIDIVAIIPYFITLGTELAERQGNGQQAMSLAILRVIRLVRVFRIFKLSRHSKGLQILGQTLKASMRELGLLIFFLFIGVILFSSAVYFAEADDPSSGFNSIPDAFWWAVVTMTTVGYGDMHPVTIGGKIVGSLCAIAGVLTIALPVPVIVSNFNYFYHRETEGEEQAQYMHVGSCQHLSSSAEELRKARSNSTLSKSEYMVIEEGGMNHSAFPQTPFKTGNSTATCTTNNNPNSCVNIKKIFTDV

[3] = molecular target: T1, Kv1.5; experiment: Kv1.5 inhibition, whole-cell patch-clamp, currents recorded from MEL-C88 cells; format: cell-based; conditions: for Selectivity IC50 (Kv1.5)/IC50 (Kv1.3): Table 1
[4] = HPLC studies on stability in DMSO stock and Ringer solution; format: physicochemical; conditions: data not shown
[5] = test system: type-1 diabetes; conditions: rat models; cited from earlier work
[6] = cited from earlier work
[7] = test system: oxazolone-induced allergic contact dermatitis; conditions: rat models; cited from earlier work
[8] = administration for 28 days or 6 months, rats or rhesus macaques; cited from earlier work
[9] = cited from earlier work; remark: listed apart in the source
[10] = molecular target: T2, Kv1.3; conditions: read-out: IC50 Kv1.3; cited from earlier work

T1 sequence (P22460 whole entry): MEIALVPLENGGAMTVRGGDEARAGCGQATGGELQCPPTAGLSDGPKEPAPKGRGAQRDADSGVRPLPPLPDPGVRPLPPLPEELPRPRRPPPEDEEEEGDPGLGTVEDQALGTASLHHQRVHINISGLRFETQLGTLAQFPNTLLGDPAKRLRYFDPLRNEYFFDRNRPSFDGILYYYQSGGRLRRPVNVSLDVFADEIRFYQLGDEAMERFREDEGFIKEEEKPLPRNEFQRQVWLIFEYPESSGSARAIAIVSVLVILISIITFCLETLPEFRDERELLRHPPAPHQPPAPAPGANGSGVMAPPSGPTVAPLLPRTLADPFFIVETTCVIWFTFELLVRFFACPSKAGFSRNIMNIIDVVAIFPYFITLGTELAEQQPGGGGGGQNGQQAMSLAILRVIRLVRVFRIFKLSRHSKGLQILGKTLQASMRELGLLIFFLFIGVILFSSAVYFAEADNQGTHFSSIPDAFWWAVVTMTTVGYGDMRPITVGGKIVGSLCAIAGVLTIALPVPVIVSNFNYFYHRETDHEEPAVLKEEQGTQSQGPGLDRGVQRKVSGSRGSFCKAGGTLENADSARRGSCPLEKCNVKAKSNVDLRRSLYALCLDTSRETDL

COc1c2ccoc2cc2oc(=O)ccc12 [Compound 5-MOP, 5-methoxypsoralen]
Selectivity IC50 (Kv1.5)/IC50 (Kv1.3) [1]: 1.75
IC50 [1]: 177000 nM

c1ccc(OCCCCOc2ccccc2)cc1 [Compound 15, 1,1'[1,4-Butanediyl(oxy)]bis-benzene]
IC50 [2]: > 10000 nM

c1ccc(OCCCCOc2cccc3ccccc23)cc1 [Compound 16, 1-(4-Phenoxybutoxy)naphthalene]
IC50 [2]: > 10000 nM

c1ccc(OCCCCOc2ccnc3ccccc23)cc1 [Compound 17, 4-(4-Phenoxybutoxy)quinoline]
IC50 [3]: 3500 nM
Selectivity (IC50 for Kv1.5 divided by the IC50 for Kv1.3) [3]: 0.34 fold
Times more potent on Kv1.5 than on Kv1.3 [3]: roughly 3 times
Selectivity IC50 (Kv1.5)/IC50 (Kv1.3) [3]: < 0.35
Effect on Kv1.3 [2]: ineffective

c1ccc(OCCCCOc2ncnc3ccccc23)cc1 [Compound 19, 4-(4-Phenoxybutoxy)quinazoline]
IC50 [3]: ~25000 nM
Effect on Kv1.3 [2]: ineffective

O=c1cc(OCCCCOc2ccccc2)c2ccccc2o1 [Compound 21, 4-(4-Phenoxybutoxy)-2H-[1]benzopyran-2-one]
IC50 [3]: 1500 nM
Selectivity IC50 (Kv1.5)/IC50 (Kv1.3) [3]: 1.69

COc1c2occc2c(OC)c2c(OCCCCOc3ccccc3)cc(=O)oc12 [Compound 23, 5,8-Dimethoxy-4-(4-phenoxybutoxy)psoralen]
IC50 [3]: 850 nM
Selectivity IC50 (Kv1.5)/IC50 (Kv1.3) [3]: 1.89

O=C1c2ccccc2C(=O)c2c(OCCCCOc3ccccc3)cccc21 [Compound 25, 1-(4-Phenoxybutoxy)anthraquinone]
IC50 [3]: 10000 nM
Selectivity IC50 (Kv1.5)/IC50 (Kv1.3) [3]: 1.43

c1ccc(OCCCCOc2cc3ccccc3c3ccccc23)cc1 [Compound 26, 9-(4-Phenoxybutoxy)phenanthrene]
IC50 [2]: > 10000 nM

COc1cccc2c(=O)c3ccccc3n(CCCCOc3ccccc3)c12 [Compound 28, 9,10-Dihydro-4-methoxy-N-(4-phenoxybutyl)acridin-9-one]
IC50 [3]: 450 nM
Selectivity IC50 (Kv1.5)/IC50 (Kv1.3) [3]: 2.73

COc1cc2nc3occc3c(OCCCCOc3ccccc3)c2cc1OC [Compound 34, 6,7-Dimethoxy-4-(4-phenoxybutoxy)furo[2,3-b]quinoline]
IC50 [3]: 480 nM
Selectivity IC50 (Kv1.5)/IC50 (Kv1.3) [3]: 3.2
Kinetics of block (mode of Kv1.3 block) [2]: block the C-type inactivated state; also recorded: use-dependence

COc1ccc2c(OCCCCOc3ccccc3)c3ccoc3nc2c1OC [Compound 35, 7,8-Dimethoxy-4-(4-phenoxybutoxy)furo[2,3-b]quinoline]
Kinetics of block (mode of Kv1.3 block) [2]: block the C-type inactivated state; also recorded: use-dependence

Cc1cc(=O)c2c(OCCCCOc3ccccc3)c3ccoc3cc2o1 [Compound 36, 7-Methyl-4-(4-phenoxybutoxy)-5H-furo[3,2-g][1]benzopyran-5-one]
IC50 [3]: 310 nM
Selectivity IC50 (Kv1.5)/IC50 (Kv1.3) [3]: 1.33
Kinetics of block (mode of Kv1.3 block) [2]: block the C-type inactivated state; also recorded: use-dependence

COc1c2occc2c(OCCCCOc2ccccc2)c2c(=O)cc(C)oc12 [Compound 37, 9-Methoxy-7-methyl-4-(4-phenoxybutoxy)-5H-furo[3,2-g][1]benzopyran-5-one]
IC50 [3]: 2500 nM
Selectivity IC50 (Kv1.5)/IC50 (Kv1.3) [3]: 1.67

O=c1ccc2c(OCCCCOc3ccccc3)cccc2o1 [Compound 42, 5-(4-Phenoxybutoxy)-2H-[1]benzopyran-2-one]
IC50 [3]: 520 nM
Selectivity IC50 (Kv1.5)/IC50 (Kv1.3) [3]: 3.47

Cc1cc(=O)c2c(OCCCCOc3ccccc3)c3c(cc2o1)OCO3 [Compound 56, 2-Methyl-6,7-methylendioxy-5-(4-phenoxybutoxy)-4H-[1]benzopyran-4-one]
Times more potent on Kv1.5 than on Kv1.3 [3]: roughly 3 times

COc1c2ccoc2c(OCCCCOc2ccccc2)c2oc(=O)cc(C)c12 [Compound 63, 5-Methoxy-4-methyl-8-(4-phenoxybutoxy)psoralen]
IC50 [3]: 280 nM
Times more potent on Kv1.5 than on Kv1.3 [3]: roughly 3 times
Selectivity IC50 (Kv1.5)/IC50 (Kv1.3) [3]: 0.88
Kinetics of block (mode of Kv1.3 block) [2]: open-channel blockers

S=c1ccc2c(OCCCCOc3ccccc3)c3ccoc3cc2o1 [Compound 73, 4-(4-Phenoxybutoxy)-7H-furo[3,2-g]chromene-7-thione]
IC50 [3]: 380 nM
Times more potent on Kv1.5 than on Kv1.3 [3]: 22 times
Selectivity IC50 (Kv1.5)/IC50 (Kv1.3) [3]: 22
Kinetics of block (mode of Kv1.3 block) [2]: block the C-type inactivated state; also recorded: use-dependence
Stability in DMSO stock solutions (HPLC) ([4]; DMSO stock solutions): more than 12 months
Stability in Ringer solution (HPLC) ([4]; Ringer solution): at least 24 hours

O=c1ccc2c(OCCCCOc3ccccc3)c3ccoc3cc2o1 [PAP-1, 5-(4-phenoxybutoxy)psoralen]
Effect on onset and incidence of type-1 diabetes [5]: significantly delays the onset and reduces the incidence of type-1 diabetes
in vitro or in vivo toxicity [6]: does not display any in vitro or in vivo toxicity
IC50 [1]: 45 nM
Potency on Kv1.3 in comparison to 5-MOP [2]: more than 1000 fold
Effect on oxazolone-induced allergic contact dermatitis [7]: effectively suppresses oxazolone-induced allergic contact dermatitis
Changes in liver enzymes or liver pathology [8]: does not lead to any changes in liver enzymes or liver pathology
phototoxicity [9]: not phototoxic

COc1cc2nc3occc3c(OC)c2cc1OC [kokusagenine, 4,6,7-trimethoxyfuro[2,3-b]quinoline]
IC50 [10]: 10000 nM
